In publication PMC3640428 (Journal of the American Chemical Society, 2013):

Molecular target: T1, T. thermophilus GluRS (glutamyl-tRNA synthetase) (Thermus thermophilus, UniProt P27000)
T1 sequence (P27000 1-468): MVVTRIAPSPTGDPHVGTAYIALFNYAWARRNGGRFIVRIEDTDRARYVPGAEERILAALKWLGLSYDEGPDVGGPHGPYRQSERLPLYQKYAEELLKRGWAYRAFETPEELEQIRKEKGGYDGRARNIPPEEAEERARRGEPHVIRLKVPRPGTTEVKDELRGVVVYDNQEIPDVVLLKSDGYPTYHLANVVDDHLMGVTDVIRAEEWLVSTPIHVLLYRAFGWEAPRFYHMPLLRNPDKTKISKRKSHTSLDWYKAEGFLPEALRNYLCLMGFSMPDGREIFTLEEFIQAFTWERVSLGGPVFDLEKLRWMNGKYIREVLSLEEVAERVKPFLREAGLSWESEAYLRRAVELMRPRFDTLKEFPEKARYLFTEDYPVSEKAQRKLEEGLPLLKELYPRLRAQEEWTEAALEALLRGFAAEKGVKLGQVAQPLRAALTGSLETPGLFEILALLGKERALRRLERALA
Experiment: intrinsic tryptophan fluorescence titration
Format: binding

Kd: 50 ± 12 µM
SMILES: Nc1ncnc2c1ncn2[C@@H]1O[C@H](COP(=O)(O)OP(=O)(O)OP(=O)(O)O)[C@@H](O)[C@H]1O [ATP]
